From US7923025B2, “Pharmaceutical composition for oral use with improved absorption” (Astellas Pharma Inc., priority 2003, dated 2011)

Test: Gastrointestinal absorption of insulin, rat intestinal loop, plasma glucose (Experiment 1)
Type: in vivo, Wistar male rats
Procedure: Then 0.25 ml blood was collected from the jugular vein 0, 0.5, 1, 1.5, 2 and 3 hours after administration and the plasma glucose concentration was determined. The reduction in the plasma glucose concentration (D, % of initial*h) up to three hours after administration was calculated with the plasma glucose concentration before administration being 100. D was calculated by subtracting the plasma glucose area under concentration (% of initial*h) up to 3 hours after administration from the AUC with administration of normal saline only.
On the other hand, by way of comparison, a liquid of 6 mg bovine insulin dissolved in 20 ml normal saline liquid was administered to a large intestine loop in an amount corresponding to 600 μg/kg insulin, or as the control, 2 ml normal saline were administered to a large intestine loop and the plasma glucose concentration was determined as described above (Glucose CII Test Wako, Wako Pure Chemical Industries, Ltd.).

In the case of “Comparison (E-SD not administered): 6 mg bovine insulin dissolved in 20 ml normal saline, without E-SD”, the “AUC (plasma glucose)” value (rat intestinal loop, up to 3 hours after administration) is reported as 368.84 ± 63.19 % of initial*h and the “D (reduction in the plasma glucose concentration)” value (up to 3 hours, AUC with normal saline only minus AUC) is reported as 13.00 % of initial*h.
